According to ChEMBL document CHEMBL1201862, “PubChem BioAssay data set” (2004):
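Each compound was tested at five concentrations against cells in 96-well plates for 48 hours. At the GI50, growth is halved.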 Active and inactive are the calls of the source. No stated cut-off is given here; in the data, active = GI50 up to about 1.1 µM and inactive = higher.

How the values were obtained:
Assay in all cases: DTP human tumour cell line panel, 48 h
[1] = test system: SW-620
[2] = test system: OVCAR-4
[3] = test system: HCT-116
[4] = test system: TK-10
[5] = test system: HCT-15
[6] = test system: MOLT-4
[7] = test system: CCRF-CEM
[8] = test system: SN12C
[9] = test system: SF-268
[10] = test system: OVCAR-5
[11] = test system: SF-539
[12] = test system: 786-0
[13] = test system: NCI-H522
[14] = test system: UO-31
[15] = test system: NCI-H460
[16] = test system: SK-MEL-5
[17] = test system: MDA-N
[18] = test system: DU-145
[19] = test system: BT-549

## O=[N+]([O-])c1ccc2c(c1)OCCOCCOc1ccc([N+](=O)[O-])cc1OCCOCCO2
[1]
  GI50: > 100 µM (inactive)
[2]
  GI50: > 100 µM (inactive)
[3]
  GI50: > 100 µM (inactive)
[4]
  GI50: > 100 µM (inactive)
[5]
  GI50: > 100 µM
[6]
  GI50: > 100 µM (inactive)
[7]
  GI50: > 100 µM (inactive)
[8]
  GI50: > 100 µM (inactive)
[9]
  GI50: > 100 µM (inactive)
[10]
  GI50: > 100 µM (inactive)
[11]
  GI50: > 100 µM (inactive)
[12]
  GI50: > 100 µM (inactive)
[13]
  GI50: > 100 µM (inactive)
[14]
  GI50: > 100 µM (inactive)
[15]
  GI50: > 100 µM (inactive)
[16]
  GI50: > 100 µM (inactive)

## O=c1c2ccccc2n2c(S)nnc2n1-c1ccccc1
[1]
  GI50: > 100 µM (inactive)
[2]
  GI50: > 100 µM (inactive)
[3]
  GI50: > 100 µM (inactive)
[4]
  GI50: > 100 µM (inactive)
[5]
  GI50: > 100 µM
[6]
  GI50: > 100 µM (inactive)
[7]
  GI50: > 100 µM (inactive)
[8]
  GI50: > 100 µM (inactive)
[9]
  GI50: > 100 µM (inactive)
[17]
  GI50: > 100 µM (inactive)
[10]
  GI50: > 100 µM (inactive)
[11]
  GI50: > 100 µM (inactive)
[12]
  GI50: > 100 µM (inactive)
[13]
  GI50: > 100 µM (inactive)
[14]
  GI50: > 100 µM (inactive)
[18]
  GI50: > 100 µM (inactive)
[15]
  GI50: > 100 µM (inactive)
[16]
  GI50: > 100 µM (inactive)

## COc1ccc2c(c1)/C(=C\c1c(Cl)n(-c3ccccc3)c3ccccc13)C(=O)N2
[1]
  GI50: 4.75 µM (inactive)
[2]
  GI50: 9.2 µM (inactive)
[3]
  GI50: 2.99 µM (inactive)
[4]
  GI50: 15.5 µM (inactive)
[5]
  GI50: 2.36 µM
[6]
  GI50: 2.23 µM (inactive)
[7]
  GI50: 3.85 µM (inactive)
[8]
  GI50: 13.6 µM (inactive)
[9]
  GI50: 2.85 µM (inactive)
[17]
  GI50: 1.74 µM (inactive)
[19]
  GI50: 10.7 µM (inactive)
[10]
  GI50: 12.4 µM (inactive)
[11]
  GI50: 2.98 µM (inactive)
[12]
  GI50: 8.45 µM (inactive)
[14]
  GI50: 1.53 µM (inactive)
[18]
  GI50: 5.89 µM (inactive)
[15]
  GI50: 5.07 µM (inactive)
[16]
  GI50: 4.34 µM (inactive)

## N#CC1C(=O)NC23CCCCC2C1c1ccccc1O3 (stereo unspecified)
[1]
  GI50: > 100 µM (inactive)
[2]
  GI50: > 100 µM (inactive)
[3]
  GI50: > 100 µM (inactive)
[4]
  GI50: > 100 µM (inactive)
[5]
  GI50: > 100 µM
[6]
  GI50: > 100 µM (inactive)
[7]
  GI50: 74.8 µM (inactive)
[9]
  GI50: 2.1 µM (inactive)
[17]
  GI50: > 100 µM (inactive)
[19]
  GI50: > 100 µM (inactive)
[10]
  GI50: > 100 µM (inactive)
[12]
  GI50: > 100 µM (inactive)
[13]
  GI50: > 100 µM (inactive)
[14]
  GI50: > 100 µM (inactive)
[18]
  GI50: > 100 µM (inactive)
[15]
  GI50: > 100 µM (inactive)
[16]
  GI50: > 100 µM (inactive)

## COc1cc(CNc2nc3cc(C(F)(F)F)ccc3nc2C(=O)O)cc(OC)c1OC
[1]
  GI50: 31.6 µM (inactive)
[3]
  GI50: 15.6 µM (inactive)
[4]
  GI50: 13.1 µM (inactive)
[5]
  GI50: 29.6 µM
[6]
  GI50: 20.7 µM (inactive)
[8]
  GI50: 15.4 µM (inactive)
[9]
  GI50: 27.7 µM (inactive)
[17]
  GI50: 21.5 µM (inactive)
[19]
  GI50: 29.8 µM (inactive)
[10]
  GI50: 49.3 µM (inactive)
[11]
  GI50: 15.2 µM (inactive)
[12]
  GI50: 19.3 µM (inactive)
[13]
  GI50: 29.2 µM (inactive)
[14]
  GI50: 18.6 µM (inactive)
[18]
  GI50: 33.2 µM (inactive)
[15]
  GI50: 25.4 µM (inactive)

## OC[C@H]1N[C@H](CO)[C@@H](O)[C@H]1O
[1]
  GI50: > 100 µM (inactive)
[3]
  GI50: > 100 µM (inactive)
[4]
  GI50: > 100 µM (inactive)
[5]
  GI50: > 100 µM
[6]
  GI50: > 100 µM (inactive)
[7]
  GI50: > 100 µM (inactive)
[8]
  GI50: > 100 µM (inactive)
[9]
  GI50: > 100 µM (inactive)
[17]
  GI50: > 10 µM (inactive)
[19]
  GI50: > 100 µM (inactive)
[10]
  GI50: > 100 µM (inactive)
[11]
  GI50: > 100 µM (inactive)
[12]
  GI50: > 100 µM (inactive)
[13]
  GI50: > 100 µM (inactive)
[14]
  GI50: > 100 µM (inactive)
[18]
  GI50: > 100 µM (inactive)
[16]
  GI50: > 100 µM (inactive)

## CC1(C)O[C@@H](CBr)C[C@H](C[C@H]2C[C@@H](O)C[C@@H](CCOCc3ccccc3)O2)O1
[1]
  GI50: 31.6 µM (inactive)
[2]
  GI50: 21.6 µM (inactive)
[3]
  GI50: 21.3 µM (inactive)
[4]
  GI50: 20.4 µM (inactive)
[5]
  GI50: 24.2 µM
[6]
  GI50: 47.1 µM (inactive)
[7]
  GI50: 47.3 µM (inactive)
[8]
  GI50: 30.4 µM (inactive)
[9]
  GI50: 22 µM (inactive)
[10]
  GI50: 18.7 µM (inactive)
[12]
  GI50: 19.4 µM (inactive)
[13]
  GI50: 16.4 µM (inactive)
[14]
  GI50: 20.7 µM (inactive)
[18]
  GI50: 25.4 µM (inactive)
[15]
  GI50: 29.9 µM (inactive)
[16]
  GI50: 30.3 µM (inactive)

## Nc1cc2[nH]c(=O)c3cc(Cl)ccc3c2cc1Cl
[1]
  GI50: 8.55 µM (inactive)
[2]
  GI50: 31.9 µM (inactive)
[3]
  GI50: 5.15 µM (inactive)
[4]
  GI50: 11.8 µM (inactive)
[5]
  GI50: 8.17 µM
[6]
  GI50: 4.11 µM (inactive)
[7]
  GI50: 18.7 µM (inactive)
[8]
  GI50: 10.2 µM (inactive)
[9]
  GI50: 11.3 µM (inactive)
[19]
  GI50: > 100 µM (inactive)
[10]
  GI50: 15.6 µM (inactive)
[11]
  GI50: 12.2 µM (inactive)
[12]
  GI50: 14.8 µM (inactive)
[13]
  GI50: 13.4 µM (inactive)
[14]
  GI50: 10.2 µM (inactive)
[18]
  GI50: 12 µM (inactive)
[15]
  GI50: 5 µM (inactive)
[16]
  GI50: 12.1 µM (inactive)
